In US20230339900A1, “CASEIN KINASE 1 DELTA MODULATORS” (Janssen Pharmaceutica NV, priority 2020, published 2023):
Counter-ions that a name gives are not always drawn.

Tests used:
[1] = target: human recombinant GST cleaved CSNK1D (Homo sapiens (Human), UniProt P48730); test: Purified enzyme assay (ADP-Glo Kinase Assay); format: biochemical; conditions: 2 nM CSNK1D, peptide substrate 150 μM, ATP 20 μM, 45 minutes room temperature
[2] = target: human CSNK1D tagged with nanoluciferase (Homo sapiens (Human), UniProt P48730); test: Whole Cell nBRET CSNK1D Binding Assay; conditions: living CHO cells stably expressing human CSNK1D-nanoluciferase; NanoBret tracer 130 nM; 2 hours 37° C.; read-out: CSNK1D BRET IC50
Sequence of human CSNK1D tagged with nanoluciferase (P48730 whole entry): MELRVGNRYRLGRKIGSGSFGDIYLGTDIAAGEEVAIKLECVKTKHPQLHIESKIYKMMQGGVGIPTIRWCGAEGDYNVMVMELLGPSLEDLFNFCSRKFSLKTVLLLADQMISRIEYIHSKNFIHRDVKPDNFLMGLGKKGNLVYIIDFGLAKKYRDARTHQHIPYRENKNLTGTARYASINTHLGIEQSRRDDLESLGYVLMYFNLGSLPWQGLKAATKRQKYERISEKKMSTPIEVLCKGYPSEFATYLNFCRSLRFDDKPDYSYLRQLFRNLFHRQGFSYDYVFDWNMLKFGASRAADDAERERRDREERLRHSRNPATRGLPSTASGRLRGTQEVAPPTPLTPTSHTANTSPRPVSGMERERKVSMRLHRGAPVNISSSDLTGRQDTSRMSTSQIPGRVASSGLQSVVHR
How it was run: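 Live CHO cells stably expressing nanoluciferase-tagged CSNK1D, seeded in serum-free OptiMEM, received compound dose-response plus NanoBRET tracer (130 nM) for 2 h at 37 °C.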

Sequence of human recombinant GST cleaved CSNK1D (P48730 whole entry): as above

SMILES	AC50 [1] [nM]	IC50 [2] [nM]
Cn1cc(-c2ccnc3[nH]cc(C(F)(F)F)c23)c(-c2ccc(F)cn2)n1 [Example 86, 4-(3-(5-Fluoropyridin-2-yl)-1-methyl-1H-pyrazol-4-yl)-3-(trifluoromethyl)-1H-pyrrolo[2,3-b]pyridine]	48	1060
Cn1cc(-c2c(C(F)(F)F)cnc3[nH]ccc23)c(-c2ccc(F)cn2)n1 [Example 87, 4-[3-(5-Fluoro-2-pyridyl)-1-methyl-pyrazol-4-yl]-5-(trifluoromethyl)-1H-pyrrolo[2,3-b]pyridine]	4	94
Cn1cc(-c2ccnc3[nH]cc(C#N)c23)c(-c2ccc(F)cn2)n1 [Example 88, 4-[3-(5-Fluoro-2-pyridyl)-1-methyl-pyrazol-4-yl]-1H-pyrrolo[2,3-b]pyridine-3-carbonitrile]	16	144
Cn1cc(-c2c(C#N)cnc3[nH]ccc23)c(-c2ccc(F)cn2)n1 [Example 89, 4-[3-(5-Fluoro-2-pyridyl)-1-methyl-pyrazol-4-yl]-1H-pyrrolo[2,3-b]pyridine-5-carbonitrile]	3	71
Cn1cc(-c2c(CC#N)cnc3[nH]ccc23)c(-c2ccc(F)cn2)n1 [Example 90, 2-[4-[3-(5-Fluoro-2-pyridyl)-1-methyl-pyrazol-4-yl]-1H-pyrrolo[2,3-b]pyridin-5-yl]acetonitrile]	75	7160
Cn1cc(-c2c(C3COC3)cnc3[nH]ccc23)c(-c2ccc(F)cn2)n1 [Example 91, 4-(3-(5-Fluoropyridin-2-yl)-1-methyl-1H-pyrazol-4-yl)-5-(oxetan-3-yl)-1H-pyrrolo[2,3-b]pyridine]	19	653
Cn1cc(-c2ccnc3[nH]cc(C4COC4)c23)c(-c2ccc(F)cn2)n1 [Example 93, 4-[3-(5-Fluoro-2-pyridyl)-1-methyl-pyrazol-4-yl]-3-(oxetan-3-yl)-1H-pyrrolo[2,3-b]pyridine]	123	3660
Cn1cc(-c2ccnc3[nH]c(C4(O)COC4)cc23)c(-c2ccc(F)cn2)n1 [Example 94, 3-(4-(3-(5-Fluoropyridin-2-yl)-1-methyl-1H-pyrazol-4-yl)-1H-pyrrolo[2,3-b]pyridin-2-yl)oxetan-3-ol]	10	187
Cn1cc(-c2c(CC3COC3)cnc3[nH]ccc23)c(-c2ccc(F)cn2)n1 [Example 95, 4-(3-(5-Fluoropyridin-2-yl)-1-methyl-1H-pyrazol-4-yl)-5-(oxetan-3-ylmethyl)-1H-pyrrolo[2,3-b]pyridine]	2	376
Cn1cc(-c2ccnc3[nH]ncc23)c(-c2ccc(F)cn2)n1 [Example 98, 4-(3-(5-Fluoropyridin-2-yl)-1-methyl-1H-pyrazol-4-yl)-1H-pyrazolo[3,4-b]pyridine]	76	2350
Cc1cc(-c2cn(C)nc2-c2ccc(F)cn2)c2cn[nH]c2n1 [Example 99, 4-(3-(5-Fluoropyridin-2-yl)-1-methyl-1H-pyrazol-4-yl)-6-methyl-1H-pyrazolo[3,4-b]pyridine]	11	238
Cc1cc(-c2cn(C)nc2-c2ccc(F)cn2)c2c(C)n[nH]c2n1 [Example 100, 4-[3-(5-Fluoro-2-pyridyl)-1-methyl-pyrazol-4-yl]-3,6-dimethyl-1H-pyrazolo[3,4-b]pyridine]	12	197
Cn1cc(-c2cc(C3CC3)nc3[nH]ncc23)c(-c2ccc(F)cn2)n1 [Example 101, 6-Cyclopropyl-4-(3-(5-fluoropyridin-2-yl)-1-methyl-1H-pyrazol-4-yl)-1H-pyrazolo[3,4-b]pyridine]	34	829
Cn1cc(-c2ncnc3[nH]ccc23)c(-c2ccc(F)cn2)n1 [Example 102, 4-(3-(5-Fluoropyridin-2-yl)-1-methyl-1H-pyrazol-4-yl)-7H-pyrrolo[2,3-d]pyrimidine]	48	1280
COc1ccc2nccc(-c3cn(C)nc3-c3ccc(F)cn3)c2n1 [Example 103, 8-[3-(5-Fluoro-2-pyridyl)-1-methyl-pyrazol-4-yl]-2-methoxy-1,5-naphthyridine]	10	147
Cn1cc(-c2ccnc3ccccc23)c(-c2ccc(F)cn2)n1 [Example 104, 4-[3-(5-Fluoro-2-pyridyl)-1-methyl-pyrazol-4-yl]quinoline]	170	1320
Cn1cc(-c2ccnc3cc(Cl)ccc23)c(-c2ccc(F)cn2)n1 [Example 105, 7-Chloro-4-[3-(5-fluoro-2-pyridyl)-1-methyl-pyrazol-4-yl]quinoline]	25	817
Cn1cc(-c2ccnc3cc(F)ccc23)c(-c2ccc(F)cn2)n1 [Example 106, 7-Fluoro-4-[3-(5-fluoro-2-pyridyl)-1-methyl-pyrazol-4-yl]quinoline]	39	564
Cn1cc(-c2ccnc3cc(C(F)(F)F)ccc23)c(-c2ccc(F)cn2)n1 [Example 107, 4-[3-(5-Fluoro-2-pyridyl)-1-methyl-pyrazol-4-yl]-7-(trifluoromethyl)quinoline]	31	264

SMILES	AC50 [1] [nM]	IC50 [2] [nM]
COc1ccc2c(-c3cn(C)nc3-c3ccc(F)cn3)ccnc2c1 [Example 108, 4-[3-(5-Fluoro-2-pyridyl)-1-methyl-pyrazol-4-yl]-7-methoxy-quinoline]	13	373
Cn1cc(-c2ccnc3cc(OC(F)(F)F)ccc23)c(-c2ccc(F)cn2)n1 [Example 109, 4-[3-(5-Fluoro-2-pyridyl)-1-methyl-pyrazol-4-yl]-7-(trifluoromethoxy)quinoline]	41	468
COc1ccc2c(-c3cn(C)nc3-c3ccc(F)cn3)cc(C)nc2c1 [Example 110, 4-[3-(5-Fluoro-2-pyridyl)-1-methyl-pyrazol-4-yl]-7-methoxy-2-methyl-quinoline]	5360	> 10000
COc1cc2c(-c3cn(C)nc3-c3ccc(F)cn3)ccnc2cc1F [Example 111, 7-Fluoro-4-[3-(5-fluoro-2-pyridyl)-1-methyl-pyrazol-4-yl]-6-methoxy-quinoline]	28	491
Cn1cc(-c2ccnc3cnccc23)c(-c2ccc(F)cn2)n1 [Example 112, 4-[3-(5-Fluoro-2-pyridyl)-1-methyl-pyrazol-4-yl]-1,7-naphthyridine]	51	953
Cn1cc(-c2ccnc3c2CCNC3)c(-c2ccc(F)cn2)n1 [Example 113, 4-[3-(5-Fluoro-2-pyridyl)-1-methyl-pyrazol-4-yl]-5,6,7,8-tetrahydro-1,7-naphthyridine]	144	> 10000
Cn1cc(-c2ccnc3c2CCCN3)c(-c2ccc(F)cn2)n1 [Example 114, 5-[3-(5-Fluoro-2-pyridyl)-1-methyl-pyrazol-4-yl]-1,2,3,4-tetrahydro-1,8-naphthyridine]	166	4230
CC(=O)Nc1cc(-c2cn(C)nc2-c2ccc(F)cn2)ccn1 [Example 115, N-(4-(3-(5-Fluoropyridin-2-yl)-1-methyl-1H-pyrazol-4-yl)pyridin-2-yl)acetamide]	9	315
Cn1cc(-c2ccnc(NC(=O)C3CC3)c2)c(-c2ccc(F)cn2)n1 [Example 116, N-(4-(3-(5-Fluoropyridin-2-yl)-1-methyl-1H-pyrazol-4-yl)pyridin-2-yl)cyclopropanecarboxamide]	3	76
Cn1cc(-c2ccnc3c2CNC3)c(-c2ccc(F)cn2)n1 [Example 117, 4-(3-(5-Fluoropyridin-2-yl)-1-methyl-1H-pyrazol-4-yl)-6,7-dihydro-5H-pyrrolo[3,4-b]pyridine]	101	> 10000
Cn1cc(-c2ccnc3ccsc23)c(-c2ccc(F)cn2)n1 [Example 118, 7-(3-(5-Fluoropyridin-2-yl)-1-methyl-1H-pyrazol-4-yl)thieno[3,2-b]pyridine]	24	376
Cn1cc(-c2cc(N)nc3[nH]ccc23)c(-c2ccc(F)cn2)n1 [Example 119, 4-[3-(5-Fluoro-2-pyridyl)-1-methyl-pyrazol-4-yl]-1H-pyrrolo[2,3-b]pyridin-6-amine]	2	32
Cn1cc(-c2ccnc3[nH]cc(CC#N)c23)c(-c2ccc(F)cn2)n1 [Example 120, 2-[4-[3-(5-Fluoro-2-pyridyl)-1-methyl-pyrazol-4-yl]-1H-pyrrolo[2,3-b]pyridin-3-yl]acetonitrile]	31	8710
CCn1ncc2cc(-c3cn(C)nc3-c3ccc(F)cn3)cnc21 [Example 121, 1-Ethyl-5-[3-(5-fluoro-2-pyridyl)-1-methyl-pyrazol-4-yl]pyrazolo[3,4-b]pyridine]	43	1600
CC(C)c1n[nH]c2nccc(-c3cn(C)nc3-c3ccc(F)cn3)c12 [Example 122, 4-[3-(5-Fluoro-2-pyridyl)-1-methyl-pyrazol-4-yl]-3-isopropyl-1H-pyrazolo[3,4-b]pyridine]	15	> 10000
Cc1nc(-c2cn(C)nc2-c2ccc(F)cn2)c2cc[nH]c2n1 [Example 123, 4-[3-(5-Fluoro-2-pyridyl)-1-methyl-pyrazol-4-yl]-2-methyl-7H-pyrrolo[2,3-d]pyrimidine Trifluoroacetate Salt]	4	234
Cc1nc(-c2cn(C)nc2-c2ccc(F)cn2)c2cn[nH]c2n1 [Example 124, 4-[3-(5-Fluoro-2-pyridyl)-1-methyl-pyrazol-4-yl]-6-methyl-1H-pyrazolo[3,4-d]pyrimidine]	52	1940
Cn1cc(-c2nc(C3CC3)nc3[nH]ccc23)c(-c2ccc(F)cn2)n1 [Example 125, 2-Cyclopropyl-4-[3-(5-fluoro-2-pyridyl)-1-methyl-pyrazol-4-yl]-7H-pyrrolo[2,3-d]pyrimidine]	66	1910
